Measured values reported in paper PMC8879200, “Design, Synthesis, and Biological Evaluation of 4,4’-Difluorobenzhydrol Carbamates as Selective M1 Antagonists” (Pharmaceuticals, 2022).

Assays:
hM3 = molecular target: T1, hM3 (Homo sapiens, UniProt P20309); test: Competitive [3H]NMS radioligand binding, CHO-hM3 cell membranes; conditions: for Displacement ± SD of [3H]NMS binding, hM3: single ligand concentration corresponding to a Ki of 1 µM (Cheng-Prusoff); for Ki: read-out: Affinity: Ki ± SD, hM3
T1 construct: host or cells: CHO-K1, stably transfected
T1 sequence (P20309 whole entry): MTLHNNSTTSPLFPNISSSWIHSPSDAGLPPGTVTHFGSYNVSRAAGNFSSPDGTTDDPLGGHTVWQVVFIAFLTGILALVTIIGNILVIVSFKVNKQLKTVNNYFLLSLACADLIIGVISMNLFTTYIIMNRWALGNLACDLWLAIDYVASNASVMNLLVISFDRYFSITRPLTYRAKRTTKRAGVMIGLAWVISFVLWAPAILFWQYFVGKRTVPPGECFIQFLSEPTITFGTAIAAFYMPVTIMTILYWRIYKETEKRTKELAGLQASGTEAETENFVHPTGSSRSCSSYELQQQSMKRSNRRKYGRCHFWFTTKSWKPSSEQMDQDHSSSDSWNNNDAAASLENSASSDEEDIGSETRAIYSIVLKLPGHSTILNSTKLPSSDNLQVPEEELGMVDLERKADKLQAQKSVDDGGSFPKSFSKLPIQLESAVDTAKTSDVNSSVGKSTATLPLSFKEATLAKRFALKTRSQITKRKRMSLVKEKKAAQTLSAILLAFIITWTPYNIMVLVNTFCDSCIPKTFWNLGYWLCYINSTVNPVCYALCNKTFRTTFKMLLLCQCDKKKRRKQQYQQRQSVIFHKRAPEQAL
Method: (§1) We first assessed the carbamates’ affinities for human muscarinic acetylcholine receptors subtypes hM1–5 by means of a competitive radioligand binding assay displacing [N-methyl-^3H]scopolamine methyl chloride ([^3H]NMS) in cell membranes expressing the individual receptors.
(§2) Cell membranes bearing hM1-hM5 receptors were prepared as described previously. Briefly, stably transfected CHO-K1 cells were grown to at least 80% confluency in T175 flasks, washed with ice-cold DPBS, and scraped into a mixture of ice-cold of 2 mL 10 mM Tris-HCl, 1 mM EDTA-buffer, pH 7.4 and 200 µL protease inhibitor. A cell homogenate was prepared by passing the cell suspension through a G29 needle. The cell homogenates corresponding to two T175 flasks were combined and subsequently centrifuged (10 min, 1000 × g, 4 °C). Ultracentrifugation of the supernatant (1 h, 100,000 × g, 4 °C) yielded a membrane pellet, which was suspended in 250 µL 50 mM Tris-HCl buffer, pH 7.4 and stored at −80 °C.
(§3) Maximum binding was measured by using 5 µL DMSO, and nonspecific binding was measured by using 5 µL of 1 µM scopolamine in DMSO. […] The membrane-bound radioactivity was recovered by filtration through Whatman™ GF/B glass fibre filters pre-soaked in aqueous 0.1% PEI using an M-36 tygon tubed cell harvester (Brandel®, Gaithersburg, MD, USA). Membranes were washed 3 times with ice-cold washing buffer (50 mM Tris, pH 7.4) before being dried, transferred to 2 mL scintillation cocktail (UltimaGold™, high flashpoint LSC cocktail, PerkinElmer, Waltham, MA, USA) and counted in a β -counter (Hidex TDCR Liquid Scintillation Counter in CPM mode). IC50 values were calculated by a variable slope logistic regression using at least five distinct concentrations of test compounds, pipetted in triplicates.

hM2 = molecular target: T2, hM2 (Homo sapiens, UniProt P08172); test: Competitive [3H]NMS radioligand binding, CHO-hM2 cell membranes; conditions: for Displacement ± SD of [3H]NMS binding, hM2: single ligand concentration corresponding to a Ki of 1 µM (Cheng-Prusoff); for Ki: read-out: Affinity: Ki ± SD, hM2
T2 construct: host or cells: CHO-K1, stably transfected
T2 sequence (P08172 1-466): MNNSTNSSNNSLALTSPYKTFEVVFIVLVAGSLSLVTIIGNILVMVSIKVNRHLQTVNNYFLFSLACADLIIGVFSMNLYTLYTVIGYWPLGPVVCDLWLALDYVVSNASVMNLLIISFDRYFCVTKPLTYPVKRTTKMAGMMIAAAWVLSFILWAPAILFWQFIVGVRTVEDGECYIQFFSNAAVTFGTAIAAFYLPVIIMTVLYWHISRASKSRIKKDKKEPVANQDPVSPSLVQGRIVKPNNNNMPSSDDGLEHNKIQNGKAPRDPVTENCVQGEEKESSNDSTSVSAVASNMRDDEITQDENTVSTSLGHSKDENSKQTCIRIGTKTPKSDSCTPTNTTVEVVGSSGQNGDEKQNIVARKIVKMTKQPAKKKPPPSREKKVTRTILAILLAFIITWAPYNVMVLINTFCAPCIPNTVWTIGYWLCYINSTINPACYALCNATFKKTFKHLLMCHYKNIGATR
Method: as §1, §2, §3

hM4 = molecular target: T3, hM4 (Homo sapiens, UniProt P08173); test: Competitive [3H]NMS radioligand binding, CHO-hM4 cell membranes; conditions: for Displacement ± SD of [3H]NMS binding, hM4: single ligand concentration corresponding to a Ki of 1 µM (Cheng-Prusoff); for Ki: inhibition of [3H]NMS binding, CHO-hM4 membranes, read-out: Affinity: Ki ± SD, hM4
T3 construct: host or cells: CHO-K1, stably transfected
T3 sequence (P08173 1-479): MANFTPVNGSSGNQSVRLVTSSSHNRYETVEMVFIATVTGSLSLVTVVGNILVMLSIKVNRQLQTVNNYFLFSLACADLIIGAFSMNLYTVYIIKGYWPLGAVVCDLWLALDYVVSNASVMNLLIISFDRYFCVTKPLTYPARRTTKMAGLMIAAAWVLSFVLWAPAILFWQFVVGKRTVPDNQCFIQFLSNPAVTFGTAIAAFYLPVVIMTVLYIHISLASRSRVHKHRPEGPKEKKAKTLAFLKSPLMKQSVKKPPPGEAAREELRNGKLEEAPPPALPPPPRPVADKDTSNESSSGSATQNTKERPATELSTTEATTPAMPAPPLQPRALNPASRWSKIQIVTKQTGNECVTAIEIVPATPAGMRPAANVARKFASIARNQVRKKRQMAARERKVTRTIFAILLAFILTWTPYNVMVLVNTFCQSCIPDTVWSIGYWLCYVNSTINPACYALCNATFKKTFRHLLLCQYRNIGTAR
Method: as §1, §2, §3

hM5 = molecular target: T4, hM5 (Homo sapiens, UniProt P08912); test: Competitive [3H]NMS radioligand binding, CHO-hM5 cell membranes; conditions: for Displacement ± SD of [3H]NMS binding, hM5: single ligand concentration corresponding to a Ki of 1 µM (Cheng-Prusoff); for Ki: inhibition of [3H]NMS binding, CHO-hM5 membranes, read-out: Affinity: Ki ± SD, hM5
T4 construct: host or cells: CHO-K1, stably transfected
T4 sequence (P08912 1-532): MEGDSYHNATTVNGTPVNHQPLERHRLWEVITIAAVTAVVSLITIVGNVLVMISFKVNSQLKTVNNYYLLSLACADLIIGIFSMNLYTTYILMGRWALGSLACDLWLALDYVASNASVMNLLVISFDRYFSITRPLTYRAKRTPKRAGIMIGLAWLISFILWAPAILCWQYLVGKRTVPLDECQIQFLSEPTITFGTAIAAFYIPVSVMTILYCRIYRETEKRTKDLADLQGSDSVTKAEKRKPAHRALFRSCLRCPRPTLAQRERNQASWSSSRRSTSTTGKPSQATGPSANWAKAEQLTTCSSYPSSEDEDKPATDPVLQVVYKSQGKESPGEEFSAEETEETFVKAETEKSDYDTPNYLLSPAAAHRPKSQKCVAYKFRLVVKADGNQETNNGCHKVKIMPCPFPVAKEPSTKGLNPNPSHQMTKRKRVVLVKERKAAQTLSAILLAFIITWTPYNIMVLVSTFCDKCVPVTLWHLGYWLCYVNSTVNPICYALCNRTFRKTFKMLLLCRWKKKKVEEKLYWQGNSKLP
Method: as §1, §2, §3

[1] = High throughput HPLC-logD (lipophilicity); conditions: pH 7.4
Method: Briefly, a mixture of toluene (≥98%, Sigma-Aldrich, St. Louis, MO, USA) and triphenylene (≥99.9%, Carl Roth, Karlsruhe, Germany) was used as internal standard. Each sample was dissolved in the internal standard mixture. Using gradient elution, the injection volume was set to 7 µL, the flow rate was 1.5 mL/min, and the mobile phase consisted of a mixture of methanol and 0.01 M sodium phosphate buffer pH 7.4. The HPLC-logD values were derived from the measured retention times following the previously published equation [27, 30].

hM1 = molecular target: T5, hM1 (Homo sapiens, UniProt P11229); test: Competitive [3H]NMS radioligand binding, CHO-hM1 cell membranes; conditions: for Displacement ± SD of [3H]NMS binding, hM1: single ligand concentration corresponding to a Ki of 1 µM (Cheng-Prusoff); for Ki: inhibition of [3H]NMS binding, CHO-hM1 membranes, read-out: Affinity: Ki ± SD, hM1
T5 construct: host or cells: CHO-K1, stably transfected
T5 sequence (P11229 1-460): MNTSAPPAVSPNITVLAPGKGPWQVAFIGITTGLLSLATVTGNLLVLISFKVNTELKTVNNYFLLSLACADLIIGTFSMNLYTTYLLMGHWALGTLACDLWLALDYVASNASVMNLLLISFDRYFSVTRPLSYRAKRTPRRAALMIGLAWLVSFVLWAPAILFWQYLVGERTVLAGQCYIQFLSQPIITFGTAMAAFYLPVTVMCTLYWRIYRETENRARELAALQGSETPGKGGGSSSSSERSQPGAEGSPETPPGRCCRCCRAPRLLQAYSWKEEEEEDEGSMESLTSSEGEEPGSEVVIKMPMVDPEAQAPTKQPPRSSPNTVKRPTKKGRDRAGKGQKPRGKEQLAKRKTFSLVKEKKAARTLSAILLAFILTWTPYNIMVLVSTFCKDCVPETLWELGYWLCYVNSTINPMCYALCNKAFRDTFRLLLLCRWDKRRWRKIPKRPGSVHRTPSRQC
Method: as §1, §2, §3

[2] = Stability in fully supplemented RPMI1640 cell culture medium; assay type: in vitro ADME; conditions: fully supplemented RPMI1640, ambient temperature, after 24 h
Method: Since the decomposition in cell culture medium of compounds designated for biological testing could impair potential assay readouts, the stabilities of one tertiary carbamate (3) and one secondary carbamate (7) were investigated as representatives for the compound set 1–12. Gratifyingly, the rate of decomposition in fully supplemented RPMI1640 cell culture medium at ambient temperature has been fairly slow, with > 95% of both compounds remaining intact after 24 h (Supplementary Materials, Figure S3). Such stability is adequate with the requirements for carbon-11 labelled PET tracers of around 2–3 half-lives.
The stabilities of 3 and 7 were measured using the HPLC gradient method as described for the purity determination. 4 µL of a test compound’s stock solution in DMSO was diluted with fully supplemented RPMI1640 cell culture medium (10% FBS, 1% L-glutamine, without antibiotics). The stability was measured at ambient temperature and the column oven was set to 20 °C. The samples were measured at 0, 30, 60, 120 min and 24 h.

SMILES	Displacement ± SD of [3H]NMS binding, hM3 (hM3) [%]	Displacement ± SD of [3H]NMS binding, hM2 (hM2) [%]	Displacement ± SD of [3H]NMS binding, hM4 (hM4) [%]	Displacement ± SD of [3H]NMS binding, hM5 (hM5) [%]	chromatographic logD [1]	Displacement ± SD of [3H]NMS binding, hM1 (hM1) [%]	x-Fold selectivity for hM1 vs. hM3 (hM3; ratio of Ki values hM3/hM1) [fold]	Ki (hM3) [nM]	x-Fold selectivity for hM1 vs. hM2 (hM2; ratio of Ki values hM2/hM1) [fold]	Ki (hM2) [nM]	Ki (hM4) [nM]	x-Fold selectivity for hM1 vs. hM4 (hM4; ratio of Ki values hM4/hM1) [fold]	Ki (hM5) [nM]	x-Fold selectivity for hM1 vs. hM5 (hM5; ratio of Ki values hM5/hM1) [fold]	Ki (hM1) [nM]	Compound remaining intact in cell culture medium [2] [%]
CN1CCCC1CCNC(=O)OC(c1ccc(F)cc1)c1ccc(F)cc1 (centres unmarked) [Compound 11, Bis(4-fluorophenyl)methyl (2-(1-methylpyrrolidin-2-yl)ethyl)carbamate]	62 ± 3	37 ± 15	54 ± 13	59 ± 17	2.5 ± 0.3	53 ± 8										
CN1CCOCC1CNC(=O)OC(c1ccc(F)cc1)c1ccc(F)cc1 (centres unmarked) [Compound 12, Bis(4-fluorophenyl)methyl ((4-methylmorpholin-3-yl)methyl)carbamate]	25 ± 9	8 ± 5	20 ± 8	43 ± 11	2.82 ± 0.04	39 ± 5										
CN1CCN(C(=O)OC(c2ccc(F)cc2)c2ccc(F)cc2)CC1 [Compound 1, Bis(4-fluorophenyl)methyl 4-methylpiperazine-1-carboxylate]					3.16 ± 0.01			226 ± 85.2		> 1000	54.8 ± 20.5		50.6 ± 3.9		15.2 ± 3.6	

Now from value to compound:

Displacement ± SD of [3H]NMS binding, hM3 (hM3) [%]	Displacement ± SD of [3H]NMS binding, hM2 (hM2) [%]	Displacement ± SD of [3H]NMS binding, hM4 (hM4) [%]	Displacement ± SD of [3H]NMS binding, hM5 (hM5) [%]	chromatographic logD [1]	Displacement ± SD of [3H]NMS binding, hM1 (hM1) [%]	x-Fold selectivity for hM1 vs. hM3 (hM3; ratio of Ki values hM3/hM1) [fold]	Ki (hM3) [nM]	x-Fold selectivity for hM1 vs. hM2 (hM2; ratio of Ki values hM2/hM1) [fold]	Ki (hM2) [nM]	Ki (hM4) [nM]	x-Fold selectivity for hM1 vs. hM4 (hM4; ratio of Ki values hM4/hM1) [fold]	Ki (hM5) [nM]	x-Fold selectivity for hM1 vs. hM5 (hM5; ratio of Ki values hM5/hM1) [fold]	Ki (hM1) [nM]	Compound remaining intact in cell culture medium [2] [%]	SMILES
				2.69 ± 0.01		1.2	277 ± 45.4	>4	> 1000	238 ± 104	1.0	295 ± 32.8	1.2	239 ± 67.9		CN1CCC(CNC(=O)OC(c2ccc(F)cc2)c2ccc(F)cc2)C1 (centres unmarked) [Compound 10, Bis(4-fluorophenyl)methyl ((1-methylpyrrolidin-3-yl)methyl)carbamate]
				2.2 ± 0.2			16.1 ± 4.5		32.8 ± 11.4	6.2 ± 2.1		3.7 ± 1.3		1.22 ± 0.06	> 95	CN1CCCC(NC(=O)OC(c2ccc(F)cc2)c2ccc(F)cc2)C1 (centres unmarked) [Compound 7, Bis(4-fluorophenyl)methyl (1-methylpiperidin-3-yl)carbamate]
